Laboratory results from US20250296959A1, “B7-H3 TARGETING PEPTIDES AND CONSTRUCTS THEREOF” (Mariana Oncology Inc., priority 2024, published 2025).
Starred links: 1 amine or outer side, 2 acyl side, 3 side chain; linkers in the order of their positions; H or OH if unused. Positions of bridges follow the written chain, without caps; N, C: chain ends. Non-standard residues stand in square brackets, D forms with d. Residues, ends and D or L forms follow the SMILES beside them. *: point of attachment. Phe(3-CH2NH2) = O=C([C@H](Cc1cccc(CN[*:3])c1)N[*:1])[*:2]; DOTA = O=C(O)CN1CCN(CC(=O)O)CCN(CC(=O)*)CCN(CC(=O)O)CC1; Trp(5-F) = N[C@@H](Cc1c[nH]c2ccc(F)cc12)C(=O)O; Phe(4-F) = N[C@@H](Cc1ccc(F)cc1)C(=O)O; 1Nal = N[C@@H](Cc1cccc2ccccc12)C(=O)O; AEF = NCCOc1ccc(C[C@H](N)C(=O)O)cc1; Chg = N[C@H](C(=O)O)C1CCCCC1; Tle = CC(C)(C)[C@H](N)C(=O)O; hLeu = CC(C)CC[C@H](N)C(=O)O; Nle = CCCC[C@H](N)C(=O)O; Nva = CCC[C@H](N)C(=O)O; CH2 = C([*:1])[*:2]

Target: T1, human 4lg B7-H3 (Homo sapiens, UniProt Q5ZPR3)
T1 sequence (Q5ZPR3 29-534): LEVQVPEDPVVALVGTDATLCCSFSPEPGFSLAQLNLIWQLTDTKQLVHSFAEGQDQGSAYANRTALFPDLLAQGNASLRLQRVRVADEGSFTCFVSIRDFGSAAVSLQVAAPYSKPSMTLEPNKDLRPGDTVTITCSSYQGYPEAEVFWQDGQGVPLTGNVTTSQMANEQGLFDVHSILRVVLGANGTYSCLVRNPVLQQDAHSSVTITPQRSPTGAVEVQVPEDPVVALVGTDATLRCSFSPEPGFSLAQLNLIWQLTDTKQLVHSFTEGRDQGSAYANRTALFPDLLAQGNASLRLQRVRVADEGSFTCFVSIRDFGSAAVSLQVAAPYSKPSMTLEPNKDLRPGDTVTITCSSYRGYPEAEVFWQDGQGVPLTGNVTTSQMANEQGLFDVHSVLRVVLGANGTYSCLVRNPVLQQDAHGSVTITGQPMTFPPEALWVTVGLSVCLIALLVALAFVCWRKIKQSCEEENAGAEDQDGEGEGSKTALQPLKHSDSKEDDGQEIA
Assay: Affinity determination by surface plasmon resonance (SPR) to 4Ig B7-H3
Settings: SPR KD—25° C., 4Ig B7-H3; 25° C. flow cell temperature

Compound | Kd [µM]
CC(=O)N[C@@H](CCC(C)C)C(=O)N[C@@H](Cc1ccc(O)cc1)C(=O)N[C@H]1CSSC[C@@H](C(=O)N[C@@H](Cc2cccc3ccccc23)C(=O)N[C@@H](Cc2ccccc2)C(=O)N[C@H](C(=O)N[C@H](CCCCNC(=O)CN2CCN(CC(=O)O)CCN(CC(=O)O)CCN(CC(=O)O)CC2)C(N)=O)[C@@H](C)O)NC(=O)[C@H](Cc2ccc(O)cc2)NC(=O)[C@H](C2CCCCC2)NC(=O)[C@H](CC(=O)O)NC(=O)[C@H](Cc2ccc(O)cc2)NC(=O)[C@H](CCCCN)NC(=O)CNC(=O)[C@H](C(C)(C)C)NC1=O [compound 180, Ac-hLeu-Y-C-Tbg-G-K-Y-D-Chg-Y-C-1Nal-F-Thr-dLys(DOTA)-CONH2] (Ac-[hLeu]YC[Tle]GKYD[Chg]YC[1Nal]FT[dK](DOTA)-NH2; disulfide 3-11) | 0.001 to 0.01
CC(=O)N[C@@H](CCC(C)C)C(=O)N[C@@H](Cc1ccc(O)cc1)C(=O)N[C@H]1CSSC[C@@H](C(=O)N[C@@H](Cc2c[nH]c3ccc(F)cc23)C(=O)N[C@@H](Cc2ccccc2)C(=O)N[C@H](C(=O)N[C@H](CCCCNC(=O)CN2CCN(CC(=O)O)CCN(CC(=O)O)CCN(CC(=O)O)CC2)C(N)=O)[C@@H](C)O)NC(=O)[C@H](Cc2ccc(O)cc2)NC(=O)[C@H](C2CCCCC2)NC(=O)[C@H](CC(=O)O)NC(=O)[C@H](Cc2ccc(O)cc2)NC(=O)[C@H](CCCCN)NC(=O)CNC(=O)[C@H](C(C)(C)C)NC1=O [compound 181, Ac-hLeu-Y-C-Tbg-G-K-Y-D-Chg-Y-C-5FW-F-Thr-dLys(DOTA)-CONH2] (Ac-[hLeu]YC[Tle]GKYD[Chg]YC[Trp(5-F)]FT[dK](DOTA)-NH2; disulfide 3-11) | 0.001 to 0.01
CC(=O)N[C@@H](CCC(C)C)C(=O)N[C@@H](Cc1ccc(O)cc1)C(=O)N[C@H]1CSSC[C@@H](C(=O)N[C@@H](Cc2c[nH]c3ccc(F)cc23)C(=O)N[C@@H](Cc2ccccc2)C(=O)N[C@H](C(N)=O)[C@@H](C)O)NC(=O)[C@H](Cc2cccc(CNC(=O)CN3CCN(CC(=O)O)CCN(CC(=O)O)CCN(CC(=O)O)CC3)c2)NC(=O)[C@H](C(C)C)NC(=O)[C@H](CC(=O)O)NC(=O)[C@H](Cc2ccc(O)cc2)NC(=O)[C@H](CCCCN)NC(=O)CNC(=O)[C@H](C(C)C)NC1=O [compound 183, Ac-hLeu-Y-C-V-G-K-Y-D-V-MAF(DOTA)-C-5FW-F-Thr-CONH2] (Ac-[hLeu]YCVGKYDV[Phe(3-CH2NH2)](DOTA)C[Trp(5-F)]FT-NH2; disulfide 3-11) | 0.001 to 0.01
CCC[C@@H]1NC(=O)[C@@H](NC(=O)[C@H](Cc2ccc(O)cc2)NC(=O)[C@H](CCC(C)C)NC(C)=O)CSSC[C@@H](C(=O)N[C@@H](Cc2c[nH]c3ccc(F)cc23)C(=O)N[C@@H](Cc2ccccc2)C(=O)N[C@H](C(=O)N[C@H](CCCCNC(=O)CN2CCN(CC(=O)O)CCN(CC(=O)O)CCN(CC(=O)O)CC2)C(N)=O)[C@@H](C)O)NC(=O)[C@H](Cc2ccc(O)cc2)NC(=O)[C@H](C(C)C)NC(=O)[C@H](CC(=O)O)NC(=O)[C@H](Cc2ccc(O)cc2)NC(=O)[C@H](CCCCN)NC(=O)CNC1=O [compound 184, Ac-hLeu-Y-C-Nva-G-K-Y-D-V-Y-C-5FW-F-Thr-dLys(DOTA)-CONH2] (Ac-[hLeu]YC[Nva]GKYDVYC[Trp(5-F)]FT[dK](DOTA)-NH2; disulfide 3-11) | 0.001 to 0.01
CCC[C@@H]1NC(=O)[C@H](CC(=O)O)NC(=O)[C@H](Cc2ccc(O)cc2)NC(=O)[C@H](CCCCN)NC(=O)CNC(=O)[C@H](C(C)C)NC(=O)[C@@H](NC(=O)[C@H](Cc2ccc(O)cc2)NC(=O)[C@H](CCC(C)C)NC(C)=O)CSSC[C@@H](C(=O)N[C@@H](Cc2c[nH]c3ccc(F)cc23)C(=O)N[C@@H](Cc2ccccc2)C(=O)N[C@H](C(=O)N[C@H](CCCCNC(=O)CN2CCN(CC(=O)O)CCN(CC(=O)O)CCN(CC(=O)O)CC2)C(N)=O)[C@@H](C)O)NC(=O)[C@H](Cc2ccc(O)cc2)NC1=O [compound 185, Ac-hLeu-Y-C-V-G-K-Y-D-Nva-Y-C-5FW-F-Thr-dLys(DOTA)-CONH2] (Ac-[hLeu]YCVGKYD[Nva]YC[Trp(5-F)]FT[dK](DOTA)-NH2; disulfide 3-11) | 0.001 to 0.01
CCCC[C@@H]1NC(=O)[C@H](CC(=O)O)NC(=O)[C@H](Cc2ccc(O)cc2)NC(=O)[C@H](CCCCN)NC(=O)CNC(=O)[C@H](C(C)C)NC(=O)[C@@H](NC(=O)[C@H](Cc2ccc(O)cc2)NC(=O)[C@H](CCC(C)C)NC(C)=O)CSSC[C@@H](C(=O)N[C@@H](Cc2c[nH]c3ccc(F)cc23)C(=O)N[C@@H](Cc2ccccc2)C(=O)N[C@H](C(=O)N[C@H](CCCCNC(=O)CN2CCN(CC(=O)O)CCN(CC(=O)O)CCN(CC(=O)O)CC2)C(N)=O)[C@@H](C)O)NC(=O)[C@H](Cc2ccc(O)cc2)NC1=O [compound 186, Ac-hLeu-Y-C-V-G-K-Y-D-Nle-Y-C-5FW-F-Thr-dLys(DOTA)-CONH2] (Ac-[hLeu]YCVGKYD[Nle]YC[Trp(5-F)]FT[dK](DOTA)-NH2; disulfide 3-11) | 0.001 to 0.01
CC(=O)N[C@@H](CCC(C)C)C(=O)N[C@@H](Cc1ccc(O)cc1)C(=O)N[C@H]1CSCSC[C@@H](C(=O)N[C@@H](Cc2c[nH]c3ccc(F)cc23)C(=O)N[C@@H](Cc2ccccc2)C(=O)N[C@H](C(=O)N[C@H](CCCCNC(=O)CN2CCN(CC(=O)O)CCN(CC(=O)O)CCN(CC(=O)O)CC2)C(N)=O)[C@@H](C)O)NC(=O)[C@H](Cc2ccc(O)cc2)NC(=O)[C@H](C(C)C)NC(=O)[C@H](CC(=O)O)NC(=O)[C@H](Cc2ccc(O)cc2)NC(=O)[C@H](CCCCN)NC(=O)CNC(=O)[C@H](C(C)C)NC1=O [compound 189, Ac-hLeu-Y-C(CH2)-V-G-K-Y-D-V-Y-C-5FW-F-Thr-dLys(DOTA)-CONH2] (Ac-[hLeu]YCVGKYDVYC[Trp(5-F)]FT[dK](DOTA)-NH2; linker 3-11 via CH2) | 0.1 to 0.3
CC(=O)N[C@@H](CCC(C)C)C(=O)N[C@@H](Cc1ccc(O)cc1)C(=O)N[C@H]1CSSC[C@@H](C(=O)N[C@@H](Cc2c[nH]c3ccc(F)cc23)C(=O)N[C@@H](Cc2ccccc2)C(=O)N[C@H](C(N)=O)[C@@H](C)O)NC(=O)[C@H](Cc2ccc(OCCNC(=O)CN3CCN(CC(=O)O)CCN(CC(=O)O)CCN(CC(=O)O)CC3)cc2)NC(=O)[C@H](C(C)C)NC(=O)[C@H](CC(=O)O)NC(=O)[C@H](Cc2ccc(O)cc2)NC(=O)[C@H](CCCCN)NC(=O)CNC(=O)[C@H](C(C)C)NC1=O [compound 191, Ac-hLeu-Y-C-V-G-K-Y-D-V-AEF(DOTA)-C-5FW-F-Thr-CONH2] (Ac-[hLeu]YCVGKYDV[AEF](DOTA)C[Trp(5-F)]FT-NH2; disulfide 3-11) | 0.001 to 0.01
CC(=O)N[C@@H](CCC(C)C)C(=O)N[C@@H](Cc1ccc(F)cc1)C(=O)N[C@H]1CSSC[C@@H](C(=O)N[C@@H](Cc2c[nH]c3ccc(F)cc23)C(=O)N[C@@H](Cc2ccccc2)C(=O)N[C@H](C(=O)N[C@H](CCCCNC(=O)CN2CCN(CC(=O)O)CCN(CC(=O)O)CCN(CC(=O)O)CC2)C(N)=O)[C@@H](C)O)NC(=O)[C@H](Cc2ccc(O)cc2)NC(=O)[C@H](C(C)C)NC(=O)[C@H](CC(=O)O)NC(=O)[C@H](Cc2ccc(O)cc2)NC(=O)[C@H](CCCCN)NC(=O)CNC(=O)[C@H](C(C)C)NC1=O [compound 192, Ac-hLeu-4FPhe-C-V-G-K-Y-D-V-Y-C-5FW-F-Thr-dLys(DOTA)-CONH2] (Ac-[hLeu][Phe(4-F)]CVGKYDVYC[Trp(5-F)]FT[dK](DOTA)-NH2; disulfide 3-11) | 0.001 to 0.01
